Data taken from patent US20160184254A1, “COMPOSITIONS COMPRISING VITAMIN K DERIVATIVES AND SALTS” (KAPPA BIOSCIENCE AS, priority 2013, published 2016).

Legend:
[1] = Calcium salt composition: recovery from tablet after direct compression; assay type: physicochemical; conditions: for compatibility with calcium in the formulation process: formulated together with calcium salts; for recovered from the tablet after formulation: magnesium stearate, MCC, compared to amount pre-formulation
Description: We combined 47 mg of a 0.19 wt % formulation of the MK-7 derivative of Example 16 (diacetate) in microcrystalline cellulose MCC with 645 mg of 90 wt % calcium carbonate, […] of magnesium stearate and 745 mg of MCC and formulated tablets of this blend using direct compression.
After formulation we recovered the MK-7 derivative from the tablet. We recovered 88 wt % of the derivative from the tablet.
The same experiment was repeated using identical conditions other than the use of MK-7 rather than the MK-7 derivative. We recovered 77.6 wt % of MK7 from the tablet compared to the amount pre-formulation. We show therefore that the loss of MK7 during tableting process is 23%.

[2] = Light stability in ethyl acetate (HPLC % area); assay type: physicochemical; conditions: for After 19 hrs % / Initial %: clear glass vial; for After 19 hrs %: 19 hours ordinary room lighting, HPLC % area; for Initial %: before light exposure, HPLC % area of total peak area
Description: (§1) The light stability of MK-7 was compared to compounds of the invention as hereinbefore described. Compounds were dissolved separately in ethyl acetate or MCT oil, transferred to glass vial (clear glass) and placed on the bench in a well lit laboratory (ordinary room lighting). The samples were analyzed after 19 hours of light exposure or more.
(§2) The samples were analyzed by HPLC using aHPLC_KB_001, with the HPLC conditions detailed below. • HPLC-DAD high pressure system: Agilent, LC system 1100 series • Analytical column: Supelcosil C-18, 4.6×250 mm, 5 μm • Column temperature: 40° C. • Flow rate: 1 mL/min • Injection volume: 8 μL • UV-detection: 270 nm/340 nm • Run time: 20 min • Eluent system: 50% Solvent C: MeOH/Water with 0.1% v/v acetic acid (95/5 v/v) 50% Solvent D: Isopropanol
(§3) The content of MK-7 and the MK-7 derivative in the samples have been quantified as % area of the total peak area in the chromatogram. […] Note that examples 2a and 2b show the synergistic behaviour discussed after table 2.

[3] = Light stability in MCT oil (HPLC % area); assay type: physicochemical; conditions: 24 hours light exposure
Description: as §1, §2, §3

[4] = In vivo testing in rats: MK-7 in plasma after oral gavage; parameters: species or system male Sprague Dawley Rats
Description: Male Rats aged 6 to 8 weeks and weighing around 180 to 225 g. Animals were fasted overnight with free access to water. Animals were administered test substance by oral gavage with a dose of 100 μg/kg body weight (in recommended formulation and dose volume). Blood samples (150-200 μl) were collected at various time points during the next 48 hours post dose. To determine the bioavailability of different formulations containing MK-7 in male e Sprague Dawley Rats through gavage. Formulations were both dissolved in sunflower oil. Approximately 0.4 ml/animal (depending on the weight of the animal) via oral gavage (100 μg/kg body weight). There were 6 animals per formulation. Blood samples were collected from the tail vein of each animal and transferred into lithium heparin tubes at 2 and 12 hours post dose. Quantification of analyte in plasma was determined by LC-MS-MS analysis: Analyte: MK-7 in plasma. The data are mean of four measurements (low and high values are not included).

[5] = tablet with calcium carbonate, direct compression

Row | SMILES | compatibility with calcium in the formulation process [1] | recovered from the tablet after formulation [1, 5] | After 19 hrs % ([2]; in ethyl acetate) | Initial % ([2]; in ethyl acetate) | reduction in the amount present after tabletting ([1]; directly compressed with excipients such as calcium or magnesium) | compatibility with calcium in the formulation process ([1]; listed as MK7) | loss during tableting process [1, 5] | light degradation in ethyl acetate compared with MCT oil ([2]; in ethyl acetate) | degradation after 19 hours of light exposure ([2]; in solution (ethyl acetate, Table 1), 19 hours light exposure) | degradation after 24 hours of light exposure [3] | serum level 12 hours after administration compared with MK-7 [4]
1 | CC(=O)Oc1c(C)c(C/C=C(\C)CC/C=C(\C)CC/C=C(\C)CC/C=C(\C)CC/C=C(\C)CC/C=C(\C)CCC=C(C)C)c(OC(C)=O)c2ccccc12 [Example 16] | more compatible with calcium than MK7 | 88 wt % | 92.7% | 93.1% | – | – | – | – | – | – | –
2 | CC(C)=CCC/C(C)=C/CC/C(C)=C/CC/C(C)=C/CC/C(C)=C/CC/C(C)=C/CC/C(C)=C/CC1=C(C)C(=O)c2ccccc2C1=O [MK-7, 2-((2E,6E,10E,14E,18E,22E)-3,7,11,15,19,23,27-Heptamethyloctacosa-2,6,10,14,18,22,26-heptaen-1-yl)-3-methylnaphthalene-1,4-dione] | degrades rapidly | 77.6 wt % | 53.7% | 99.4% | up to 30% | degrades in the formulation process together with calcium | 23% | degrades even more rapidly | approximately 50% | approximately 70% | –
3 | CC(C)=CCC/C(C)=C/CC/C(C)=C/CC/C(C)=C/CC/C(C)=C/CC/C(C)=C/CC/C(C)=C/Cc1c(C)c(OC(=O)c2ccccc2)c2ccccc2c1OC(=O)c1ccccc1 [Example 1, 2-((2E,6E,10E,14E,18E,22E)-3,7,11,15,19,23,27-heptamethyl-octacosa-2,6,10,14,18,22,26-heptaen-1-yl)-3-methylnaphthalene-1,4-diyl dibenzoate] | – | – | 95.4% | 98.5% | – | – | – | – | – | – | –
4 | CCC(=O)Oc1c(C)c(C/C=C(\C)CC/C=C(\C)CC/C=C(\C)CC/C=C(\C)CC/C=C(\C)CC/C=C(\C)CCC=C(C)C)c(OC(=O)CC)c2ccccc12 [Example 7, 2-((2E,6E,10E,14E,18E,22E)-3,7,11,15,19,23,27-heptamethyloctacosa-2,6,10,14,18,22,26-heptaen-1-yl)-3-methylnaphthalene-1,4-diyl dipropionate] | – | – | – | – | – | – | – | – | – | – | the same
